Experimental data reported in article PMC2099433, “The binding site for neohesperidin dihydrochalcone at the human sweet taste receptor” (BMC Structural Biology, 2007).
Positions count from the first letter of the chain named. Where a SMILES comes first, the peptide text is derived from it.

Legend:
[1] = biological target: T1, hTAS1R2 + hTAS1R3 T724L^5.37 (Homo sapiens, UniProt Q7RTX0+Q8TE23, T724L); test: Calcium response (FLIPR), hTAS1R3 mutant coexpressed with hTAS1R2; format: cell-based; settings: variant T724L^5.37; for Emax: read-out: maximal signal (% of wt)
T1 construct: expressed in transfected cells; host or cells: HEK293T cells stably expressing G16Gust44
T1 sequence (Q7RTX0 21-852 T724L): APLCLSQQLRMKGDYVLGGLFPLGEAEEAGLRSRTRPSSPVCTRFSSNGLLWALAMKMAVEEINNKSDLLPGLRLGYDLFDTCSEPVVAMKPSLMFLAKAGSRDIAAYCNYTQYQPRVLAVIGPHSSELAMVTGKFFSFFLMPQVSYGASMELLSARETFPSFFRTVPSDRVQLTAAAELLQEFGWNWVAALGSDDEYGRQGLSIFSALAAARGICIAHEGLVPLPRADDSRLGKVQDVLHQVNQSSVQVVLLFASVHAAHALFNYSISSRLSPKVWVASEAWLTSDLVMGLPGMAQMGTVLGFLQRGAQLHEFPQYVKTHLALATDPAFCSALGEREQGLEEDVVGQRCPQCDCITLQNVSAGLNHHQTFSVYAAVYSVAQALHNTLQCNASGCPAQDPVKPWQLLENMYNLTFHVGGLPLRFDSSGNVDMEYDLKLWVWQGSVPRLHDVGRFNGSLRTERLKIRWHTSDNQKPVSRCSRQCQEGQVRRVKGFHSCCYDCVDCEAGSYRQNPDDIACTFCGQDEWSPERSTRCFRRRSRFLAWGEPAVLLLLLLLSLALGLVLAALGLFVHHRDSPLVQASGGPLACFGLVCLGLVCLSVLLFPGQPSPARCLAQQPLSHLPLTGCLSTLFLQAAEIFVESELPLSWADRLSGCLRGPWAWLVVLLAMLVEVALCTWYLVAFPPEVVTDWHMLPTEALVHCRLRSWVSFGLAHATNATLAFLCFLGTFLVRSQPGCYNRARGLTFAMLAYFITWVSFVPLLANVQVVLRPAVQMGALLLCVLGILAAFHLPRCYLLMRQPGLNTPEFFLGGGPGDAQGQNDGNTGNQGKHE
T1 sequence (Q8TE23 20-839): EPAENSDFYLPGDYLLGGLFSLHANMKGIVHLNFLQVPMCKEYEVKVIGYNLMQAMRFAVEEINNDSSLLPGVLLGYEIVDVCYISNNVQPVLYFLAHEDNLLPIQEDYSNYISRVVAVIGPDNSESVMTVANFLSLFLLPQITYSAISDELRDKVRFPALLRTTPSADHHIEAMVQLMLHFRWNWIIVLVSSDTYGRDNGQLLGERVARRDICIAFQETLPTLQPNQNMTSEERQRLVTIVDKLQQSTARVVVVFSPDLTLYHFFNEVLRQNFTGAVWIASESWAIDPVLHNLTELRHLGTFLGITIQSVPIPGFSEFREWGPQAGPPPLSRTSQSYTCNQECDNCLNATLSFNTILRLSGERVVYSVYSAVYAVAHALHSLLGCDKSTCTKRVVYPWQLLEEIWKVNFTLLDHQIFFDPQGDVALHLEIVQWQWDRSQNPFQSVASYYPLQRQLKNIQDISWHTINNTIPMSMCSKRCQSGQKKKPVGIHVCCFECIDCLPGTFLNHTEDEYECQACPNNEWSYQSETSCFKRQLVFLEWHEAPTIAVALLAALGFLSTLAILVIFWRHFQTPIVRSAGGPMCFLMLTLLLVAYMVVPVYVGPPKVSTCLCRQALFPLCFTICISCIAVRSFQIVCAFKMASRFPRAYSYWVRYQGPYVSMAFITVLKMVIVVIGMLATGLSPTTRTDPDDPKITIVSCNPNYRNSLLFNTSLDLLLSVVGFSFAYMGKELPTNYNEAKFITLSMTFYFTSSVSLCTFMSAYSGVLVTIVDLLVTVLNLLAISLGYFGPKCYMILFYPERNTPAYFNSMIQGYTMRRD
Summary of the method: (§1)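 Each mutant receptor pair was expressed transiently in G16Gust44-expressing HEK293T cells; stimuli dissolved in C1 solution triggered calcium responses, recorded by fluorometric imaging and scaled to baseline fluorescence (ΔF/F) after mock correction, from at least three experiments run in duplicate.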

[2] = biological target: T2, hTAS1R2 + hTAS1R3 Y699F^4.60 (Homo sapiens, UniProt Q7RTX0+Q8TE23, Y699F); test: as above; format: cell-based; settings: variant Y699F^4.60; for Emax: read-out: maximal signal (% of wt)
T2 construct: expressed in transfected cells; host or cells: HEK293T cells stably expressing G16Gust44
T2 sequence (Q7RTX0 21-852 Y699F): T1 sequence (Q7RTX0 21-852 T724L) with Y679F, L704T
T2 sequence (Q8TE23 20-839): T1 sequence (Q8TE23 20-839)
Summary of the method: as §1

Row | SMILES | EC50 [1] [µM] | Emax [1] [%] | EC50 [2] [µM] | Emax [2] [%]
1 | COc1ccc(CCC(=O)c2c(O)cc(O[C@@H]3O[C@H](CO)[C@@H](O)[C@H](O)[C@H]3O[C@@H]3O[C@@H](C)[C@H](O)[C@@H](O)[C@H]3O)cc2O)cc1O [NHDC, neohesperidin dihydrochalcone] | 500 ± 300 | 58 ± 60 | 600 ± 400 | 72 ± 17
2 | COC(=O)[C@H](Cc1ccccc1)NC(=O)[C@@H](N)CC(=O)O [aspartame] (HELM PEPTIDE1{D.F.[CO[*:1]]}$$$$V2.0) | 1500 ± 200 | 69 ± 2 | 1200 ± 300 | 56 ± 2
